In ChEMBL document CHEMBL4138265, “Synthesis of a Chloroalkene Dipeptide Isostere-Containing Peptidomimetic and Its Biological Application” (ACS Med Chem Lett, 2018):

What was measured:
Integrin alpha-V/beta-3 [1] = target: T1, Integrin alpha-V/beta-3 (Homo sapiens, UniProt P05106+P06756); test: Inhibition of vitronectin binding to human integrin alphaVbeta3 measured after 4 hrs by ELISA; format: protein-complex assay
Integrin alpha-V/beta-3 [2] = target: T1, Integrin alpha-V/beta-3; test: Inhibition of vitronectin binding to integrin alphaVbeta3 in HDF pretreated for 20 mins followed by vitronectin addition measured after 40 mins by crystal violet staining based assay; format: protein-complex assay
[3] = Stability in human serum at 1 mM incubated for 15 mins measured up to 180 mins by RP-HPLC method; format: ADME, cell-free; conditions: 0.25 h, 1000 µM

T1 sequence (P05106 27-788 limits assumed): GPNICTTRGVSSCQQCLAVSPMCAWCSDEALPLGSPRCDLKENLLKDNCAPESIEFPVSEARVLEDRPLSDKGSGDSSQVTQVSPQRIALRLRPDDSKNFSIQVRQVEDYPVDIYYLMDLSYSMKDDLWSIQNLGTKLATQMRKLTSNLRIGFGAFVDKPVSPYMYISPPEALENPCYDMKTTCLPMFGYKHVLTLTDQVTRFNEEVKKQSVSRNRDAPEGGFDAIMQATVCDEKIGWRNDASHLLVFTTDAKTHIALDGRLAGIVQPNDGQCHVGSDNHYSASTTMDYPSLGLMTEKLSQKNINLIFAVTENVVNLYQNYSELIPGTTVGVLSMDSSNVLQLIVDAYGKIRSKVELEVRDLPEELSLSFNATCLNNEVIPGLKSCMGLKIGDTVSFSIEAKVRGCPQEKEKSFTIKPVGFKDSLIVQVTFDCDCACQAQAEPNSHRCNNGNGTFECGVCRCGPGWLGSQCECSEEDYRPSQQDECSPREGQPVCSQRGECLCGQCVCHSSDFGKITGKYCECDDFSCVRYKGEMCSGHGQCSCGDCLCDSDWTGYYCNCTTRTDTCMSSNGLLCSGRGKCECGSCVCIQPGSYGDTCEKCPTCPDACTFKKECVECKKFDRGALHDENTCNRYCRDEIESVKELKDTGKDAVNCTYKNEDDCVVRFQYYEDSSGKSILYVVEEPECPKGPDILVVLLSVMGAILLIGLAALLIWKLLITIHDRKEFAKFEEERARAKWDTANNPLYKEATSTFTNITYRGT
T1 sequence (P06756 31-889 limits assumed): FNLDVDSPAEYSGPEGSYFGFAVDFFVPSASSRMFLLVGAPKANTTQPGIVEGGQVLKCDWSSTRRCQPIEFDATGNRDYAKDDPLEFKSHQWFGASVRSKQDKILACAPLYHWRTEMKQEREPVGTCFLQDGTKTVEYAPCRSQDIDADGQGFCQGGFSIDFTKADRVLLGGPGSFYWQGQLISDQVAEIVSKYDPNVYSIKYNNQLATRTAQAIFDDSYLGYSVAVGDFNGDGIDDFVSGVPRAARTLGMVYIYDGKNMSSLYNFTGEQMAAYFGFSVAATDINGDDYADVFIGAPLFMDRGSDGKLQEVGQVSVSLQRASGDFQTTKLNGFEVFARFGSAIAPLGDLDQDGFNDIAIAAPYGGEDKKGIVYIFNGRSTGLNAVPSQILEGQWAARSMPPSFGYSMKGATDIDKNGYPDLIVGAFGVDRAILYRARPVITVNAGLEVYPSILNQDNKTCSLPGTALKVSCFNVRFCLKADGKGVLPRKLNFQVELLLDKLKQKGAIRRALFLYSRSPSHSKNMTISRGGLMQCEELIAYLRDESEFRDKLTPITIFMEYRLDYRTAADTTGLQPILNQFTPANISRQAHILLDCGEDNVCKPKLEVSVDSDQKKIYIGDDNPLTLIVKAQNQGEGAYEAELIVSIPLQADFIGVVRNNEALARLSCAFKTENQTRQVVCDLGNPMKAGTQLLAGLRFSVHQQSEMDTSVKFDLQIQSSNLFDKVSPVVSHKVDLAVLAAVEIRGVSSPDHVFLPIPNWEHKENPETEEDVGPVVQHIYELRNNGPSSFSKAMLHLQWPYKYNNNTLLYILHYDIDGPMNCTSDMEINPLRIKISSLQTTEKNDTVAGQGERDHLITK
T1 sequence (P06756 891-1048 limits assumed): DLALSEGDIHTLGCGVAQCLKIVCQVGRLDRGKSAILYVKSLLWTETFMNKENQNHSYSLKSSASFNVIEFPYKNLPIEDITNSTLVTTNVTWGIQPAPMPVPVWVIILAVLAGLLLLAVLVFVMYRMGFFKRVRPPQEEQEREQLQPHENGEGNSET

SMILES: C/C1=C\[C@@H](Cc2ccccc2)NC(=O)[C@H](CC(=O)O)NC(=O)CNC(=O)[C@H](CCCNC(=N)N)NC(=O)[C@@H]1C(C)C
- IC50 (Integrin alpha-V/beta-3 [1]): 2.4 nM

SMILES: CC(C)[C@@H]1/C=C/[C@@H](Cc2ccccc2)NC(=O)[C@H](CC(=O)O)NC(=O)CNC(=O)[C@H](CCCNC(=N)N)NC1=O
- IC50 (Integrin alpha-V/beta-3 [1]): 3.6 nM

SMILES: CC(C)[C@@H]1/C=C(\Cl)[C@@H](Cc2ccccc2)NC(=O)[C@H](CC(=O)O)NC(=O)CNC(=O)[C@H](CCCNC(=N)N)NC1=O
- IC50 (Integrin alpha-V/beta-3 [2]): 0.497 nM
- Stability [3]: Stable
